Measurements from US8263610B2, “Substituted imidazolyl-5,6-dihydrobenzo[N]isoquinoline compounds” (ArQule, Inc., priority 2008, dated 2012).
Structures can show the parent of a compound that is named as a salt.

SMILES	melting point
COc1ccc(CN2CCc3c(cnc4c3cnn4Cc3ccc(OC)cc3)C2)cc1	105 to 107 °C
COc1ccc(Cn2ncc3c4c(cnc32)CNCC4)cc1	96 to 102 °C
O=C(O)C(F)(F)F.c1nc2[nH]ncc2c2c1CNCC2	224 to 227 °C
c1ccc(CNC2CCc3c(cnc4[nH]ncc34)C2)cc1 (stereo not drawn) (as salt: TFA)	> 232 °C
Clc1ccccc1C1Cc2cnc3[nH]nc(-c4cnn(C5CCNCC5)c4)c3c2-c2ccccc21 (stereo not drawn) (as salt: TFA) [Example 19, 7-(2-chlorophenyl)-1-(1-piperidin-4-yl-1H-pyrazol-4-yl)-6,7-dihydro-3H-benzo[f]pyrazolo[3,4-c]isoquinoline]	> 225 °C
O=C(C(NCCc1c[nH]c2ccccc12)c1ccccc1)N1CCc2c(cnc3[nH]ncc23)C1 (stereo not drawn) (as salt: TFA) [Example 84, N-(2-(1H-indol-3-yl)ethyl)-2-(8,9-dihydro-3H-pyrazolo[3,4-c][2,7]naphthyridin-7(6H)-yl)-2-oxo-1-phenylethanaminium 2,2,2-trifluoroacetate]	> 164 °C
COc1ccc(Cn2ncc3c4c(cnc32)CC(NC(=O)c2ccccc2)CC4)cc1 (stereo not drawn) [Compound 5, N-[3-(4-methoxybenzyl)-6,7,8,9-tetrahydro-3H-pyrazolo[3,4-c]isoquinolin-7-yl]benzamide]	> 65 °C
COc1ccc(Cn2ncc3c4c(cnc32)CN(S(=O)(=O)c2ccccc2)CC4)cc1 [Compound 6, 3-(4-methoxybenzyl)-7-(phenylsulfonyl)-6,7,8,9-tetrahydro-3H-pyrazolo[3,4-c][2,7]naphthyridine]	136 to 138 °C
Clc1ccc(C2Cc3cnc4[nH]ncc4c3-c3ccccc32)cc1Cl (stereo not drawn) [Example 1, 7-(3,4-dichlorophenyl)-6,7-dihydro-3H-benzo[f]pyrazolo[3,4-c]isoquinoline]	168 to 170 °C
c1ccc(C2Cc3cnc4[nH]ncc4c3-c3ccccc32)cc1 (stereo not drawn) [Example 2, 7-phenyl-6,7-dihydro-3H-benzo[f]pyrazolo[3,4-c]isoquinoline]	143 to 145 °C
Fc1ccc(C2Cc3cnc4[nH]ncc4c3-c3ccccc32)cc1F (stereo not drawn) [Example 3, 7-(3,4-difluorophenyl)-6,7-dihydro-3H-benzo[f]pyrazolo[3,4-c]isoquinoline]	195 to 196 °C
Clc1ccccc1C1Cc2cnc3[nH]ncc3c2-c2ccccc21 (stereo not drawn) [Example 5, 7-(2-dichlorophenyl)-6,7-dihydro-3H-benzo[f]pyrazolo[3,4-c]isoquinoline]	88 to 91 °C
Fc1ccc(C2Cc3cnc4[nH]ncc4c3-c3ccccc32)cc1 (stereo not drawn) [Example 6, 7-(4-fluorophenyl)-6,7-dihydro-3H-benzo[f]pyrazolo[3,4-c]isoquinoline]	167 to 169 °C
Cc1cc(C)c2c(c1)-c1c(cnc3[nH]ncc13)CC2 [Example 7, 8,10-dimethyl-6,7-dihydro-3H-benzo[f]pyrazolo[3,4-c]isoquinoline]	152 to 155 °C
COc1cccc2c1CCc1cnc3[nH]ncc3c1-2 [Example 8, 8-methoxy-6,7-dihydro-3H-benzo[f]pyrazolo[3,4-c]isoquinoline]	85 to 89 °C
COc1ccc2c(c1)-c1c(cnc3[nH]ncc13)CC2 [Example 9, 10-methoxy-6,7-dihydro-3H-benzo[f]pyrazolo[3,4-c]isoquinoline]	95 to 97 °C
c1cnc2c(c1)CCc1cnc3[nH]ncc3c1-2 [Example 10, 6,9-dihydro-5H-pyrazolo[3,4-k][1,8]phenanthroline]	263 to 265 °C
O=[N+]([O-])c1ccc2c(c1)-c1c(cnc3[nH]ncc13)CC2 [Example 14, 10-nitro-6,7-dihydro-3H-benzo[f]pyrazolo[3,4-c]isoquino line]	214 to 217 °C
O=c1ccc2c([nH]1)CCc1cnc3[nH]ncc3c1-2 [Example 15, 6,7-dihydro-3H-pyrazolo[4,3-a][3,7]phenanthrolin-9(8H)-one]	290 to 296 °C
Brc1n[nH]c2ncc3c(c12)-c1ccccc1C(c1ccccc1)C3 (stereo not drawn) [Example 16, 1-bromo-7-phenyl-6,7-dihydro-3H-benzo[f]pyrazolo[3,4-c]isoquinoline]	176 to 178 °C
CC(C)(C)OC(=O)N1CCC(n2cc(-c3n[nH]c4ncc5c(c34)-c3ccccc3C(c3ccccc3Cl)C5)cn2)CC1 (stereo not drawn) [Example 18, tert-butyl 4-(4-(7-(2-chlorophenyl)-6,7-dihydro-3H-benzo[f]pyrazolo[3,4-c]isoquinolin-1-yl)-1H-pyrazol-1-yl)piperidine-1-carboxylate]	139 to 141 °C
c1ccc2c(c1)NCCc1cnc3[nH]ncc3c1-2 [Example 29, 3,6,7,8-tetrahydropyrazolo[4′,3′:5,6]pyrido[3,4-d][1]benzazepine]	215 to 217 °C

More lines, now with the values ahead:

melting point	SMILES
270 to 271 °C	O=S(=O)(c1ccccc1)N1CCc2c(cnc3[nH]ncc23)C1
200 to 202 °C	S=C(Nc1ccccc1)N1CCc2c(cnc3[nH]ncc23)C1
> 216 °C	O=C(Nc1ccccc1)NC1CCc2c(cnc3[nH]ncc23)C1 (stereo not drawn)
> 300 °C	O=C(Nc1ccccc1)C1CCc2c(cnc3[nH]ncc23)C1 (stereo not drawn)
265 °C (dec.)	Cl.c1ccc(-c2n[nH]c3ncc4c(c23)CCNC4)cc1
> 115 °C	O=C(C(NCCO)c1ccccc1)N1CCc2c(cnc3[nH]nc(Br)c23)C1.O=C(O)C(F)(F)F (stereo not drawn)
> 245 °C	Cl.O=C(C(c1ccccc1)N1CCNCC1)N1CCc2c(cnc3[nH]nc(Br)c23)C1 (stereo not drawn)
> 100 °C	N[C@H](C(=O)N1CCc2c(cnc3[nH]ncc23)C1)c1ccccc1.O=C(O)C(F)(F)F
184 to 196 °C	CN(C)CCNC(=O)c1cccc(NC(=O)N2CCc3c(cnc4[nH]ncc34)C2)c1 (as salt: TFA) [Example 95, N-(3-(2-(dimethylamino)ethylcarbamoyl)phenyl)-8,9-dihydro-3H-pyrazolo[3,4-c][2,7]naphthyridine-7(6H)-carboxamide]
> 135 °C	O=C(NCc1ccccc1)c1cccc(NC(=O)N2CCc3c(cnc4[nH]ncc34)C2)c1 (as salt: TFA) [Example 96, N-[3-(benzylcarbamoyl)phenyl]-3,6,8,9-tetrahydro-7H-pyrazolo[3,4-c][2,7]naphthyridine-7-carboxamide]
300 to 302 °C	O=C(c1ccccc1)c1c[nH]c2ncnc(N3CCc4c(cnc5[nH]ncc45)C3)c12 (as salt: TFA) [Example 435, (4-(8,9-dihydro-3H-pyrazolo[3,4-c][2,7]naphthyridin-7(6H)-yl)-7H-pyrrolo[2,3-d]pyrimidin-5-yl)(phenyl)methanone]
230 to 231 °C	O=C(Nc1ccccc1)N1CCc2c(cnc3[nH]nc(C4=CCNCC4)c23)C1 (as salt: chloride)
240 °C (dec.)	NC(=O)c1cccc(-c2n[nH]c3ncc4c(c23)CCNC4)c1 (as salt: trifluoroacetate)
245 °C (dec.)	CC(=O)Nc1cccc(-c2n[nH]c3ncc4c(c23)CCNC4)c1 (as salt: trifluoroacetate) [Example 456, 1-(3-acetamidophenyl)-6,7,8,9-tetrahydro-3H-pyrazolo[3,4-c][2,7]naphthyridin-7-ium 2,2,2-trifluoroacetate]
